Measurements as given in patent publication US8461305B2, “L-fucose α1→6 specific lectin” (J-Oil Mills, Inc., priority 2008, dated 2013).
Blank lines part the entries; values can stand above or below the substance they belong to.

Assay: frontal affinity chromatography (FAC), association constant to PA sugar chains without L-fucose
Assay type: binding
Conditions: for binding to sugar chain not having L-fucose: FAC
Outline: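 Lectin coupled via primary amines to NHS-activated sepharose in a miniature column, run in TBS (pH 7.4) at 0.125 ml/min and 25 degrees C. PA sugar chains (3.75 nM or 7.5 nM) applied in excess, with elution monitored by fluorescence (ex 310/em 380 nm). Ka calculated from front-end delay (V−Vo) versus PA rhamnose and effective ligand amount (Bt).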

[1] = Sugar chain No. 001, sugar chain not having L-fucose
[2] = Sugar chain No. 002, sugar chain not having L-fucose
[3] = Sugar chain No. 003, sugar chain not having L-fucose
[4] = Sugar chain No. 004, sugar chain not having L-fucose
[5] = Sugar chain No. 005, sugar chain not having L-fucose
[6] = Sugar chain No. 006, sugar chain not having L-fucose
[7] = Sugar chain No. 007, sugar chain not having L-fucose
[8] = Sugar chain No. 008, sugar chain not having L-fucose
[9] = Sugar chain No. 009, sugar chain not having L-fucose
[10] = Sugar chain No. 010, sugar chain not having L-fucose
[11] = Sugar chain No. 011, sugar chain not having L-fucose
[12] = Sugar chain No. 012, sugar chain not having L-fucose
[13] = Sugar chain No. 013, sugar chain not having L-fucose
[14] = Sugar chain No. 014, sugar chain not having L-fucose
[15] = Sugar chain No. 101, sugar chain not having L-fucose
[16] = Sugar chain No. 103, sugar chain not having L-fucose
[17] = Sugar chain No. 104, sugar chain not having L-fucose
[18] = Sugar chain No. 105, sugar chain not having L-fucose
[19] = Sugar chain No. 107, sugar chain not having L-fucose
[20] = Sugar chain No. 108, sugar chain not having L-fucose
[21] = Sugar chain No. 301, sugar chain not having L-fucose
[22] = Sugar chain No. 304, sugar chain not having L-fucose
[23] = Sugar chain No. 305, sugar chain not having L-fucose
[24] = Sugar chain No. 307, sugar chain not having L-fucose
[25] = Sugar chain No. 308, sugar chain not having L-fucose
[26] = Sugar chain No. 313, sugar chain not having L-fucose
[27] = Sugar chain No. 314, sugar chain not having L-fucose
[28] = Sugar chain No. 323, sugar chain not having L-fucose
[29] = Sugar chain No. 501, sugar chain not having L-fucose
[30] = Sugar chain No. 502, sugar chain not having L-fucose
[31] = Sugar chain No. 503, sugar chain not having L-fucose
[32] = Sugar chain No. 504, sugar chain not having L-fucose
[33] = Sugar chain No. 701, sugar chain not having L-fucose
[34] = Sugar chain No. 702, sugar chain not having L-fucose
[35] = Sugar chain No. 703, sugar chain not having L-fucose
[36] = Sugar chain No. 704, sugar chain not having L-fucose
[37] = Sugar chain No. 705, sugar chain not having L-fucose
[38] = Sugar chain No. 706, sugar chain not having L-fucose
[39] = Sugar chain No. 707, sugar chain not having L-fucose
[40] = Sugar chain No. 708, sugar chain not having L-fucose
[41] = Sugar chain No. 709, sugar chain not having L-fucose
[42] = Sugar chain No. 710, sugar chain not having L-fucose
[43] = Sugar chain No. 711, sugar chain not having L-fucose
[44] = Sugar chain No. 712, sugar chain not having L-fucose
[45] = Sugar chain No. 713, sugar chain not having L-fucose
[46] = Sugar chain No. 715, sugar chain not having L-fucose
[47] = Sugar chain No. 716, sugar chain not having L-fucose
[48] = Sugar chain No. 717, sugar chain not having L-fucose
[49] = Sugar chain No. 724, sugar chain not having L-fucose
[50] = Sugar chain No. 725, sugar chain not having L-fucose
[51] = Sugar chain No. 728, sugar chain not having L-fucose
[52] = Sugar chain No. 732, sugar chain not having L-fucose
[53] = Sugar chain No. 733, sugar chain not having L-fucose
[54] = Sugar chain No. 734, sugar chain not having L-fucose
[55] = Sugar chain No. 735, sugar chain not having L-fucose
[56] = Sugar chain No. 736, sugar chain not having L-fucose
[57] = Sugar chain No. 737, sugar chain not having L-fucose
[58] = Sugar chain No. 738, sugar chain not having L-fucose
[59] = Sugar chain No. 901, sugar chain not having L-fucose
[60] = Sugar chain No. 902, sugar chain not having L-fucose
[61] = Sugar chain No. 903, sugar chain not having L-fucose
[62] = Sugar chain No. 905, sugar chain not having L-fucose
[63] = Sugar chain No. 907, sugar chain not having L-fucose

binding to sugar chain not having L-fucose: not detected at all
Substance: Naematoloma sublateritium lectin [NSL]
association constant Ka [1]: <1000 M⁻¹
association constant Ka [2]: <1000 M⁻¹
association constant Ka [3]: <1000 M⁻¹
association constant Ka [4]: <1000 M⁻¹
association constant Ka [5]: <1000 M⁻¹
association constant Ka [6]: <1000 M⁻¹
association constant Ka [7]: <1000 M⁻¹
association constant Ka [8]: <1000 M⁻¹
association constant Ka [9]: <1000 M⁻¹
association constant Ka [10]: <1000 M⁻¹
association constant Ka [11]: <1000 M⁻¹
association constant Ka [12]: <1000 M⁻¹
association constant Ka [13]: <1000 M⁻¹
association constant Ka [14]: <1000 M⁻¹
association constant Ka [15]: <1000 M⁻¹
association constant Ka [16]: <1000 M⁻¹
association constant Ka [17]: <1000 M⁻¹
association constant Ka [18]: <1000 M⁻¹
association constant Ka [19]: <1000 M⁻¹
association constant Ka [20]: <1000 M⁻¹
association constant Ka [21]: <1000 M⁻¹
association constant Ka [22]: <1000 M⁻¹
association constant Ka [23]: <1000 M⁻¹
association constant Ka [24]: <1000 M⁻¹
association constant Ka [25]: <1000 M⁻¹
association constant Ka [26]: <1000 M⁻¹
association constant Ka [27]: <1000 M⁻¹
association constant Ka [28]: <1000 M⁻¹
association constant Ka [29]: <1000 M⁻¹
association constant Ka [30]: <1000 M⁻¹
association constant Ka [31]: <1000 M⁻¹
association constant Ka [32]: <1000 M⁻¹
association constant Ka [33]: <1000 M⁻¹
association constant Ka [34]: <1000 M⁻¹
association constant Ka [35]: <1000 M⁻¹
association constant Ka [36]: <1000 M⁻¹
association constant Ka [37]: <1000 M⁻¹
association constant Ka [38]: <1000 M⁻¹
association constant Ka [39]: <1000 M⁻¹
association constant Ka [40]: <1000 M⁻¹
association constant Ka [41]: <1000 M⁻¹
association constant Ka [42]: <1000 M⁻¹
association constant Ka [43]: <1000 M⁻¹
association constant Ka [44]: <1000 M⁻¹
association constant Ka [45]: <1000 M⁻¹
association constant Ka [46]: <1000 M⁻¹
association constant Ka [47]: <1000 M⁻¹
association constant Ka [48]: <1000 M⁻¹
association constant Ka [49]: <1000 M⁻¹
association constant Ka [50]: <1000 M⁻¹
association constant Ka [51]: <1000 M⁻¹
association constant Ka [52]: <1000 M⁻¹
association constant Ka [53]: <1000 M⁻¹
association constant Ka [54]: <1000 M⁻¹
association constant Ka [55]: <1000 M⁻¹
association constant Ka [56]: <1000 M⁻¹
association constant Ka [57]: <1000 M⁻¹
association constant Ka [58]: <1000 M⁻¹
association constant Ka [59]: <1000 M⁻¹
association constant Ka [60]: <1000 M⁻¹
association constant Ka [61]: <1000 M⁻¹
association constant Ka [62]: <1000 M⁻¹
association constant Ka [63]: <1000 M⁻¹

binding to sugar chain not having L-fucose: not detected at all
Substance: Lepista sordida lectin [LSL, novel lectin purified from the mushroom Lepista sordida]
association constant Ka [1]: <1000 M⁻¹
association constant Ka [2]: <1000 M⁻¹
association constant Ka [3]: <1000 M⁻¹
association constant Ka [4]: <1000 M⁻¹
association constant Ka [5]: <1000 M⁻¹
association constant Ka [6]: <1000 M⁻¹
association constant Ka [7]: <1000 M⁻¹
association constant Ka [8]: <1000 M⁻¹
association constant Ka [9]: <1000 M⁻¹
association constant Ka [10]: <1000 M⁻¹
association constant Ka [11]: <1000 M⁻¹
association constant Ka [12]: <1000 M⁻¹
association constant Ka [13]: <1000 M⁻¹
association constant Ka [14]: <1000 M⁻¹
association constant Ka [15]: <1000 M⁻¹
association constant Ka [16]: <1000 M⁻¹
association constant Ka [17]: <1000 M⁻¹
association constant Ka [18]: <1000 M⁻¹
association constant Ka [19]: <1000 M⁻¹
association constant Ka [20]: <1000 M⁻¹
association constant Ka [21]: <1000 M⁻¹
association constant Ka [22]: <1000 M⁻¹
association constant Ka [23]: <1000 M⁻¹
association constant Ka [24]: <1000 M⁻¹
association constant Ka [25]: <1000 M⁻¹
association constant Ka [26]: <1000 M⁻¹
association constant Ka [27]: <1000 M⁻¹
association constant Ka [28]: <1000 M⁻¹
association constant Ka [29]: <1000 M⁻¹
association constant Ka [30]: <1000 M⁻¹
association constant Ka [31]: <1000 M⁻¹
association constant Ka [32]: <1000 M⁻¹
association constant Ka [33]: <1000 M⁻¹
association constant Ka [34]: <1000 M⁻¹
association constant Ka [35]: <1000 M⁻¹
association constant Ka [36]: <1000 M⁻¹
association constant Ka [37]: <1000 M⁻¹
association constant Ka [38]: <1000 M⁻¹
association constant Ka [39]: <1000 M⁻¹
association constant Ka [40]: <1000 M⁻¹
association constant Ka [41]: <1000 M⁻¹
association constant Ka [42]: <1000 M⁻¹
association constant Ka [43]: <1000 M⁻¹
association constant Ka [44]: <1000 M⁻¹
association constant Ka [45]: <1000 M⁻¹
association constant Ka [46]: <1000 M⁻¹
association constant Ka [47]: <1000 M⁻¹
association constant Ka [48]: <1000 M⁻¹
association constant Ka [49]: <1000 M⁻¹
association constant Ka [50]: <1000 M⁻¹
association constant Ka [51]: <1000 M⁻¹
association constant Ka [52]: <1000 M⁻¹
association constant Ka [53]: <1000 M⁻¹
association constant Ka [54]: <1000 M⁻¹
association constant Ka [55]: <1000 M⁻¹
association constant Ka [56]: <1000 M⁻¹
association constant Ka [57]: <1000 M⁻¹
association constant Ka [58]: <1000 M⁻¹
association constant Ka [59]: <1000 M⁻¹
association constant Ka [60]: <1000 M⁻¹
association constant Ka [61]: <1000 M⁻¹
association constant Ka [62]: <1000 M⁻¹
association constant Ka [63]: <1000 M⁻¹
